In ChEMBL document CHEMBL1201862, “PubChem BioAssay data set” (2004):
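Five concentrations, 48 hours, 96-well plates. GI50 is the concentration that inhibits growth by half.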 The source made the active and inactive calls. No stated cut-off is given here; in the data, active = GI50 up to about 1.1 µM and inactive = higher.

How the values were obtained:
Assay in all cases: NCI tumour cell line growth inhibition, 48 h
HT-29 = tested on: HT-29
PC-3 = tested on: PC-3
DU-145 = tested on: DU-145
ACHN = tested on: ACHN
RPMI-8226 = tested on: RPMI-8226
TK-10 = tested on: TK-10
786-0 = tested on: 786-0
Malme-3M = tested on: Malme-3M
SNB-75 = tested on: SNB-75
MDA-MB-435 = tested on: MDA-MB-435
SN12C = tested on: SN12C
KM12 = tested on: KM12
SF-295 = tested on: SF-295
NCI/ADR-RES = tested on: NCI/ADR-RES
SF-539 = tested on: SF-539
MOLT-4 = tested on: MOLT-4
A498 = tested on: A498
SK-MEL-28 = tested on: SK-MEL-28
T47D = tested on: T47D
NCI-H23 = tested on: NCI-H23
UACC-62 = tested on: UACC-62
RXF 393 = tested on: RXF 393
HCT-15 = tested on: HCT-15
LOX IMVI = tested on: LOX IMVI
BT-549 = tested on: BT-549
HCT-116 = tested on: HCT-116
OVCAR-3 = tested on: OVCAR-3
COLO 205 = tested on: COLO 205
SF-268 = tested on: SF-268
MDA-MB-231 = tested on: MDA-MB-231
MDA-N = tested on: MDA-N
HL-60 = tested on: HL-60
EKVX = tested on: EKVX
CCRF-CEM = tested on: CCRF-CEM
SK-MEL-5 = tested on: SK-MEL-5
U-251 = tested on: U-251
SW-620 = tested on: SW-620
SNB-19 = tested on: SNB-19
IGROV-1 = tested on: IGROV-1
M14 = tested on: M14
Hs-578T = tested on: Hs-578T
OVCAR-8 = tested on: OVCAR-8
SK-OV-3 = tested on: SK-OV-3
K562 = tested on: K562
OVCAR-5 = tested on: OVCAR-5
MCF7 = tested on: MCF7
UO-31 = tested on: UO-31
NCI-H226 = tested on: NCI-H226
SK-MEL-2 = tested on: SK-MEL-2
CAKI-1 = tested on: CAKI-1
UACC-257 = tested on: UACC-257
HCC 2998 = tested on: HCC 2998
HOP-92 = tested on: HOP-92
SR = tested on: SR
A549 = tested on: A549
NCI-H460 = tested on: NCI-H460
OVCAR-4 = tested on: OVCAR-4
HOP-62 = tested on: HOP-62

With `CCOC(=O)c1c(NC(=O)c2ccccc2)sc2c1CCCC2` the GI50 (HT-29) was > 100 µM (inactive), the GI50 (PC-3) was > 100 µM (inactive) and the GI50 (DU-145) was > 100 µM (inactive). For the same molecule, the GI50 (ACHN) was > 100 µM (inactive), the GI50 (RPMI-8226) was > 100 µM (inactive) and the GI50 (TK-10) was > 100 µM (inactive). The GI50 (786-0) was > 100 µM (inactive), the GI50 (Malme-3M) was 78.9 µM (inactive) and the GI50 (SNB-75) was 7.23 µM (inactive). The GI50 (MDA-MB-435) was > 100 µM (inactive), the GI50 (SN12C) was > 100 µM (inactive) and the GI50 (KM12) was > 100 µM (inactive). The GI50 (SF-295) was > 100 µM (inactive), the GI50 (NCI/ADR-RES) was > 100 µM (inactive) and the GI50 (SF-539) was > 100 µM (inactive). For the same molecule, the GI50 (MOLT-4) was > 100 µM (inactive), the GI50 (A498) was > 100 µM (inactive) and the GI50 (SK-MEL-28) was > 100 µM (inactive). For the same molecule, the GI50 (T47D) was > 100 µM (inactive), the GI50 (NCI-H23) was > 100 µM (inactive) and the GI50 (UACC-62) was > 100 µM (inactive). The GI50 (RXF 393) was > 100 µM (inactive), the GI50 (HCT-15) was > 100 µM and the GI50 (LOX IMVI) was > 100 µM (inactive). The GI50 (BT-549) was > 100 µM (inactive), the GI50 (HCT-116) was > 100 µM (inactive) and the GI50 (OVCAR-3) was > 100 µM (inactive). For the same molecule, the GI50 (COLO 205) was > 100 µM (inactive), the GI50 (SF-268) was > 100 µM (inactive) and the GI50 (MDA-MB-231) was 81.7 µM (inactive). The GI50 (MDA-N) was > 100 µM (inactive), the GI50 (HL-60) was > 100 µM (inactive) and the GI50 (EKVX) was > 100 µM (inactive). The GI50 (CCRF-CEM) was > 100 µM (inactive), the GI50 (SK-MEL-5) was > 100 µM (inactive) and the GI50 (U-251) was > 100 µM (inactive). The GI50 (SW-620) was > 100 µM (inactive), the GI50 (SNB-19) was > 100 µM (inactive) and the GI50 (IGROV-1) was > 100 µM (inactive). For the same molecule, the GI50 (M14) was > 100 µM (inactive), the GI50 (Hs-578T) was > 100 µM (inactive) and the GI50 (OVCAR-8) was > 100 µM (inactive). For the same molecule, the GI50 (SK-OV-3) was > 100 µM (inactive), the GI50 (K562) was > 100 µM (inactive) and the GI50 (OVCAR-5) was > 100 µM (inactive). For the same molecule, the GI50 (MCF7) was > 100 µM (inactive), the GI50 (UO-31) was > 100 µM (inactive) and the GI50 (NCI-H226) was > 100 µM (inactive). For the same molecule, the GI50 (SK-MEL-2) was > 100 µM (inactive), the GI50 (CAKI-1) was > 100 µM (inactive) and the GI50 (UACC-257) was > 100 µM (inactive).
For `COc1ccc(C2C(C#N)=C(S)N(C3OC(COC(C)=O)C(OC(C)=O)C(OC(C)=O)C3OC(C)=O)C(C)=C2C(C)=O)cc1` (stereo not given), the GI50 (HT-29) was 71.3 µM (inactive), the GI50 (PC-3) was 31.3 µM (inactive) and the GI50 (DU-145) was > 100 µM (inactive). The GI50 (ACHN) was 77.1 µM (inactive), the GI50 (RPMI-8226) was 73.1 µM (inactive) and the GI50 (TK-10) was > 100 µM (inactive). The GI50 (786-0) was > 100 µM (inactive), the GI50 (HCC 2998) was > 100 µM (inactive) and the GI50 (Malme-3M) was > 100 µM (inactive). The GI50 (HOP-92) was 30 µM (inactive), the GI50 (SNB-75) was 26.4 µM (inactive) and the GI50 (MDA-MB-435) was 66.4 µM (inactive). The GI50 (SN12C) was > 100 µM (inactive), the GI50 (SR) was 49.1 µM (inactive) and the GI50 (KM12) was > 100 µM (inactive). For the same molecule, the GI50 (SF-295) was > 100 µM (inactive), the GI50 (NCI/ADR-RES) was > 100 µM (inactive) and the GI50 (A549) was 70.6 µM (inactive). For the same molecule, the GI50 (SF-539) was > 100 µM (inactive), the GI50 (MOLT-4) was 20.1 µM (inactive) and the GI50 (SK-MEL-28) was > 100 µM (inactive). The GI50 (T47D) was 28.6 µM (inactive), the GI50 (NCI-H23) was > 100 µM (inactive) and the GI50 (UACC-62) was 57.5 µM (inactive). The GI50 (RXF 393) was 40.5 µM (inactive), the GI50 (HCT-15) was > 100 µM and the GI50 (LOX IMVI) was > 100 µM (inactive). The GI50 (BT-549) was 52.4 µM (inactive), the GI50 (HCT-116) was 65 µM (inactive) and the GI50 (OVCAR-3) was 64.7 µM (inactive). For the same molecule, the GI50 (COLO 205) was 58.2 µM (inactive), the GI50 (SF-268) was > 100 µM (inactive) and the GI50 (MDA-MB-231) was > 100 µM (inactive). For the same molecule, the GI50 (NCI-H460) was 83.4 µM (inactive), the GI50 (MDA-N) was 46.1 µM (inactive) and the GI50 (HL-60) was 46.3 µM (inactive). For the same molecule, the GI50 (CCRF-CEM) was 30.3 µM (inactive), the GI50 (SK-MEL-5) was 26.4 µM (inactive) and the GI50 (U-251) was > 100 µM (inactive). For the same molecule, the GI50 (SW-620) was 42.3 µM (inactive), the GI50 (SNB-19) was > 100 µM (inactive) and the GI50 (IGROV-1) was > 100 µM (inactive). The GI50 (OVCAR-4) was 53 µM (inactive), the GI50 (HOP-62) was > 100 µM (inactive) and the GI50 (M14) was 57 µM (inactive). The GI50 (Hs-578T) was 59.3 µM (inactive), the GI50 (SK-OV-3) was > 100 µM (inactive) and the GI50 (K562) was 28.1 µM (inactive). The GI50 (OVCAR-5) was > 100 µM (inactive), the GI50 (MCF7) was > 100 µM (inactive) and the GI50 (UO-31) was 81.8 µM (inactive). For the same molecule, the GI50 (SK-MEL-2) was > 100 µM (inactive), the GI50 (CAKI-1) was > 100 µM (inactive) and the GI50 (UACC-257) was > 100 µM (inactive).
